Earlier results, collected in patent US20150174247A1, “ORAL PHARMACEUTICAL PREPARATION OF ARIPIPRAZOLE” (MARUISHI PHARMACEUTICAL CO., LTD., priority 2012, published 2015).

## O=C1CCc2ccc(OCCCCN3CCN(c4cccc(Cl)c4Cl)CC3)cc2N1 [aripiprazole, 7-{4-[4-(2,3-dichlorophenyl)-1-piperazinyl]-butoxy}-3,4-dihydro-2(1H)-quinolinone]
Acidic range (pH 4.5 or less)
  solubility in acidic range: highly soluble
Neutral (pH 5) or higher pH range
  solubility in neutral or higher pH range: less soluble
